Source: patent US11491168B2, “Combination of Bcl-2/Bcl-xL inhibitors and chemotherapeutic agent and use thereof” (ASCENTAGE PHARMA (SUZHOU) CO., LTD., priority 2019, dated 2022)

Key:
NCI-N87 cells [1] = experiment: AnnexinV/PI staining apoptosis, NCI-N87; assay type: cell-based; details: NCI-N87, 48 hours; Compound 31 0.3 μM, 5-FU 3 μM
Description: (§1) The inventors chose to combine Compound 31 with one of the most common chemotherapeutic drugs in clinic, 5-fluorouracil (5-FU). In order to investigate the effect and the potential mechanisms of Compound 31 and 5-FU on the growth of gastric cancer cells, the inventors used the AnnexinV/PI staining to detect the apoptosis of two gastric cancer cells, AGS and NCI-N87, 48 hours after the treatment with Compound 31 (0.3 μM), 5-FU (3 μM), and the combination at specified concentrations. […] In NCI-N87 cells, the combination group also achieved a higher apoptosis rate than the mono therapy groups, Compound 31 or 5-FU as a single agent leading to apoptosis rates of 24% or 18% while the combination group reaching an apoptosis rate of 46% (FIG. 29(a)).

NCI-N87 cells [2] = experiment: CCK-8 anti-proliferation, NCI-N87, Compound 31 with docetaxel; assay type: cell-based; details: Homo sapiens; NCI-N87, 72 hours, Compound 31 alone
Description: Briefly, NCI-N87 cells were seeded in 96-well plates and treated with different Compound 31 at different concentrations for 72 hours. […] Each concentration was prepared in triplicates. At the end of treatment, CCK-8 agents (10 μL/well) were added to the 96-well plate, and incubated with the cells for 2 hours. The OD450 value was measured using a microplate reader.

[3] = test system: AGS and NCI-N87 gastric cancer cell lines; experiment: cell cycle assay; assay type: cell-based
[4] = test system: AGS gastric cancer cell line; experiment: CCK-8 cell viability, AGS; assay type: cell-based; details: within 72 hours
Source text: (§2) Thus, the sensitivity of gastric cancer cells to Compound 31 is closely related to the expression of Bcl-2, Bcl-xL and Bax.

AGS cells = experiment: AnnexinV/PI staining apoptosis, AGS; assay type: cell-based; details: 48 hours, Compound 31 0.3 μM, 5-FU 3 μM
Description: as §1

[5] = test system: NCI-N87 gastric cancer cell line; experiment: CCK-8 cell viability, NCI-N87; assay type: cell-based; details: Homo sapiens; NCI-N87, within 72 hours
Source text: as §2

[6] = test system: small cell lung cancer cell line NCI-H146, NCI-H69 and NCI-H446; experiment: Cell Titer-Glo luminescent cell viability assay (CTG); assay type: cell-based, human; details: small cell lung cancer cells
Description: Cells in the logarithmic growth phase were collected for Cell Titer-Glo® (CTG) luminescence cell viability assay. 10 μL of the diluted drug solution was added into a 96-well plate while 10 μL of the medium was added into the 96-well control plate. For the study of the combination, 5 μL of the indicated test reagent was added to each well. At the end of the study, the 96-well plates were equilibrated to room temperature, and then 30 μL of CTG reagent (protected from light) was added to each well to induce cell lysis. The luminescent signal was then detected using a Biotek Synergy H1 plate reader. Percent cell viability (%) was calculated using the mean luminescence value (LN) of the replicate wells (blank) of the control group, according to the following formula: percent cell viability (%)=(fluorescence signal value of experimental cells−fluorescence signal value of negative control cell)/(fluorescence signal value of control cells−fluorescence signal value of negative control cells)×100%.
Cell viability curve was plotted using Graphpad Prism 6.0 software (Golden software, Golden, Colo., USA). For the study of the drug combination, the Combination Index (CI) was calculated using CalcuSyn software (BIOSOFT, UK) to further analyze the combined effects of the indicated drugs (Chou, Cancer Research 70, 440-446). […]

Q: Which results are given for `Cc1c(S(C)(=O)=O)c(-c2cc(F)cc(N3CCN(c4ccc(NS(=O)(=O)c5ccc(N[C@H](CCN6CCC(C(=O)O)CC6)CSc6ccccc6)c(S(=O)(=O)C(F)(F)F)c5)cc4)CC3)c2)c(-c2ccc(Cl)cc2)n1C(C)C` [Compound 31, (R)-1-(3-(4-(N-(4-(4-(3-(2-(4-chlorophenyl)-1-isopropyl-5-methyl-4-(methylsulfonyl)-1H-pyrrol-3-yl)-5-fluorophenyl)piperazin-1-yl)phenyl)sulfamoyl)-2-(trifluoromethylsulfonyl)phenylamino)-4-(phenylthio)butyl)piperidine-4-carboxylic acid]?
A: apoptosis rate (NCI-N87 cells [1]): 24%; IC50 (NCI-N87 cells [2]): 405 nM; effect on cell cycle [3]: no significant effect on cell cycle; IC50 [4]: 1150 ± 560 nM; apoptosis rate (AGS cells): approximately 22%; IC50 [5]: 901 ± 230 nM; inhibition of proliferation as a single agent [6]: can inhibit proliferation of small cell lung cancer cells
